Results on 82 compounds are retold here after article PMC12040169 (PLOS Biology, 2025).

SMILES strings stand for the structures.

This data set in a line: in vitro. The following applies: human, hela cells, % viability.
Consider `CC(=O)Nc1cc(C(=O)NCCc2ccccc2)ccc1S(=O)(=O)c1ccc(C)cc1` [CBK071771], for which the viability (usually a read-out of living cells in per cent, often relative to untreated cells) at 28.5 h, 10 µM is 89.3%.
Consider `Cc1ccc(CNC(=O)c2ccc3c(c2)NC(=O)C(N2CCCC2)S3)cc1` (stereo not shown) [CBK071788], for which the viability at 28.5 h, 10 µM is 84.6%.
For the compound `CCCCN(C)CCNC(=O)c1ccc2c(c1)NC(=O)C(N1CCCCC1)S2` (stereo not shown) [CBK071799], the viability at 28.5 h, 10 µM amounted to 85.1%.
Regarding `COc1ccccc1NC(=O)Cn1cnc2sc(C(=O)NC(C)C)c(C)c2c1=O` [CBK071847], the viability at 28.5 h, 10 µM amounted to 93%.
The figure for `CCOCCn1cnc2sc(C(=O)NCc3ccccn3)c(C)c2c1=O` [CBK071857] is 93.4%; for `Cc1cc2c(=O)n(CC(=O)NCc3ccccn3)cnc2s1` [CBK071900] it is 91.1%; for `CCCNC(=O)Cn1cnc2sc(C(=O)Nc3ccccc3OC)c(C)c2c1=O` [CBK071910] it is 90.3%.
For the compound `CCCNC(=O)Cn1cnc2sc(C(=O)Nc3ccc(OCC)cc3)c(C)c2c1=O` [CBK071920], the viability at 28.5 h, 10 µM was 91.2%.
For the compound `O=C(CN1CCN(S(=O)(=O)c2ccc(F)cc2)CC1)Nc1cccc(C(F)(F)F)c1` [CBK071925], the viability at 28.5 h, 10 µM amounted to 92.7%.
On to `O=C(Nc1nc2ccccc2s1)c1cccnc1Cl` [CBK071983], for which the viability at 28.5 h, 10 µM turned out to be 108%.
Under `Cc1cc(C)c2c(N)c(C(=O)Nc3ccc(Br)cc3)sc2n1` [CBK072019] stands 108%; under `COc1cccc(NC(=O)c2sc(N)nc2-c2ccccc2)c1` [CBK072023], 95.2%; under `Cc1ccc(-c2csc(NC(=O)c3ccccc3C(=O)O)n2)cc1` [CBK072083], 91.9%.
Take `CCOC(=O)C1=C(C)NC(=O)NC1c1ccc(-c2cccc([N+](=O)[O-])c2)o1` (stereo not shown) [CBK072102]: the viability at 28.5 h, 10 µM was found to be 109%.
In the case of `CC(C)NC(=O)CSc1nc2ccccc2[nH]1` [CBK072235], the viability at 28.5 h, 10 µM was 92.9%.
For `COc1cc(NC(=O)CCc2ccccc2)nc(OC)n1` [CBK072282], the viability at 28.5 h, 10 µM stood at 79.5%.
In the case of `O=C1NC(c2cccnc2)Nc2sc3c(c21)CCCC3` (stereo not shown) [CBK072377], the viability at 28.5 h, 10 µM is 103%.
Under `CCN(CC)CCSc1nc(O)c(Cc2ccccc2)c(=O)[nH]1` [CBK072486] stands 88.9%; under `O=C(COc1ccccc1)N1CCN(Cc2ccncc2)CC1` [CBK072595], 94.6%; under `Clc1ccc(Nc2ncnc3ccccc23)cc1` [CBK072625], 86.1%.
On to `COc1ccc(C(=O)Nc2cccc(-c3nc4ccccc4[nH]3)c2)c(OC)c1` [CBK072662], for which the viability at 28.5 h, 10 µM was determined as 95.4%.
As for `Cc1ccc(-c2csc(NC(=O)c3cccnc3)n2)cc1` [CBK072677], the viability at 28.5 h, 10 µM was determined as 96.9%.
As for `Cc1nc2ccccc2c(=O)n1CC(=O)NCc1ccccc1` [CBK072830], the viability at 28.5 h, 10 µM was found to be 91.9%.
For the compound `O=C(O)c1cccc(Nc2ncnc3ccccc23)c1` [CBK073042], the viability at 28.5 h, 10 µM stood at 87.8%.
Turning to `OCCNc1ncnc2ccc(Br)cc12` [CBK073217], the viability at 28.5 h, 10 µM is 93.9%.
The figure for `O=C(COc1ccc(Br)cc1)N1CCN(Cc2ccncc2)CC1` [CBK073259] is 98.1%; for `O=C(COc1ccccc1)N1CCN(Cc2ccccn2)CC1` [CBK073265G] it is 86.1%; for `Cc1ccccc1OCc1nc(C#N)c(NCc2ccc3c(c2)OCO3)o1` [CBK073372] it is 109%.
For `Cc1cc(NC(=O)CNC(=O)c2ccccc2)no1` [CBK073427], the viability at 28.5 h, 10 µM is 99.7%.
In the case of `CC(C)C(=O)Nc1cccc(C(=O)Nc2nnc(C(F)(F)F)s2)c1` [CBK073453], the viability at 28.5 h, 10 µM worked out at 107%.
Regarding `COC(=O)C1=C(C)N=C2SCCC(=O)N2C1c1ccc(C(C)C)cc1` (stereo not shown) [CBK073523], the viability at 28.5 h, 10 µM amounted to 109%.
In the case of `COc1ccc(C)cc1S(=O)(=O)Nc1cc(N2CCN(CC3CC3)CC2)c2occc2c1` [CBK073624C], the viability at 28.5 h, 10 µM stood at 94.2%.
For the compound `CC(C)C(=O)Nc1cc2cccnc2nc1-c1ccccc1` [CBK073647], the viability at 28.5 h, 10 µM is 94.7%.
On to `CC(C)C(=O)Nc1cc2cccnc2nc1-c1ccsc1` [CBK073649], for which the viability at 28.5 h, 10 µM was found to be 87.8%.
`CC(C)C(=O)Nc1cc2cccnc2nc1-c1ccc2c(c1)OCCCO2` [CBK073658]: the viability at 28.5 h, 10 µM came to 96.3%.
For the compound `COc1cc(-c2nc3ncccc3cc2NC(=O)C(C)C)cc(OC)c1OC` [CBK073661], the viability at 28.5 h, 10 µM was found to be 96.6%.
The figure for `COc1ccc(-c2ccc3ccc(NC(=O)C(C)C)nc3n2)cc1C` [CBK073665] is 92.3%; for `COc1ccc([C@@]23CC[C@@H](NC(=O)Nc4ccc(C)c(F)c4F)C[C@@H]2N(C)CC3)cc1OC` [CBK073686T] it is 87.3%.
`Oc1cc2cccnc2nc1-c1ccccc1` [CBK073697]: the viability at 28.5 h, 10 µM stood at 115%.
Regarding `CC(C)(C)c1ccc(-c2nc3ncccc3cc2O)cc1` [CBK073703], the viability at 28.5 h, 10 µM worked out at 74.5%.
`Oc1cc2cccnc2nc1-c1cccc(C(F)(F)F)c1` [CBK073704]: the viability at 28.5 h, 10 µM is 79%.
As to `COc1ccc(-c2ccc3ccc(=O)[nH]c3n2)cc1C` [CBK073712], the viability at 28.5 h, 10 µM is 108%.
Take `O=c1ccc2ccc(-c3cccc(C(F)(F)F)c3)nc2[nH]1` [CBK073717]: the viability at 28.5 h, 10 µM is 83.7%.
Consider `O=c1ccc2ccc(-c3ccc(OC(F)(F)F)cc3)nc2[nH]1` [CBK073720], for which the viability at 28.5 h, 10 µM was 98.8%.
On to `O=c1ccc2c(-c3ccccc3)ccnc2[nH]1` [CBK073723], for which the viability at 28.5 h, 10 µM is 94.2%.
Consider `O=c1ccc2c(-c3ccsc3)ccnc2[nH]1` [CBK073724], for which the viability at 28.5 h, 10 µM was found to be 91.5%.
`COc1cc(F)ccc1-c1ccnc2[nH]c(=O)ccc12` [CBK073727]: the viability at 28.5 h, 10 µM came to 74.2%.
`O=c1ccc2c(-c3cccc(OCc4ccccc4)c3)ccnc2[nH]1` [CBK073739]: the viability at 28.5 h, 10 µM is 87.6%.
As for `COc1ccc([C@@]23CC[C@@H](NC(=O)Nc4c(F)cc(F)cc4Cl)C[C@@H]2N(C)CC3)cc1OC` [CBK073740T], the viability at 28.5 h, 10 µM was found to be 112%.
As for `COc1ccc([C@@]23CC[C@@H](NC(=O)Nc4c(F)ccc(F)c4Cl)C[C@@H]2N(C)CC3)cc1OC` [CBK073769T], the viability at 28.5 h, 10 µM came out at 93%.
In the case of `CS(=O)(=O)Nc1cc2ccccc2c(-c2ccc3c(c2)CCO3)n1` [CBK073773], the viability at 28.5 h, 10 µM turned out to be 90.5%.
Consider `CCNC(=O)Nc1cc2ccccc2c(-c2cccnc2)n1` [CBK073787], for which the viability at 28.5 h, 10 µM was determined as 82.3%.
The figure for `CCOC(=O)C1(N)CCCC1` [CBK073836C] is 94.4%; for `O=C1CCC(=O)N1` [CBK073851] it is 88.7%; for `CCN(Cc1ccccc1)[C@@H](CO)Cc1ccc(OC)cc1` [CBK073856T] it is 89.6%.
Turning to `Cc1cc(C)nc(SCC(=O)N2c3ccccc3C(C)(c3ccc(Cl)cc3)CC2(C)C)n1` (stereo not shown) [CBK073872], the viability at 28.5 h, 10 µM worked out at 110%.
With `O=S(=O)(Nc1ncc(Br)c2cccnc12)c1cccc(C(F)(F)F)c1` [CBK073884], the viability at 28.5 h, 10 µM was 112%.
`O=S(=O)(Nc1ncc(Br)c2cccnc12)c1ccc(Oc2ccccc2)cc1` [CBK073886]: the viability at 28.5 h, 10 µM is 105%.
Take `O=c1ccc2cc(S(=O)(=O)Nc3ncc(Br)c4cccnc34)ccc2o1` [CBK073887]: the viability at 28.5 h, 10 µM amounted to 94%.
Consider `O=S(=O)(Nc1ncc(Br)c2cccnc12)c1ccc(Cl)c(Cl)c1` [CBK073888], for which the viability at 28.5 h, 10 µM worked out at 89.5%.
Consider `Cc1nn(C)c(Cl)c1S(=O)(=O)Nc1ccc2cc(Br)cnc2n1` [CBK073892], for which the viability at 28.5 h, 10 µM is 78.3%.
For the compound `COC(=O)c1cn(Cc2ccccc2)nn1` [CBK073903], the viability at 28.5 h, 10 µM worked out at 98.1%.
On to `COc1ccc([C@@]23CC[C@@H](NC(=O)Nc4cc(F)c(F)c(F)c4)C[C@@H]2N(C)CC3)c(F)c1OC` [CBK073909T], for which the viability at 28.5 h, 10 µM worked out at 90.6%.
As to `Cc1ccc(C2(C)CC(C)(C)N(C(=O)CSc3nnc[nH]3)c3ccccc32)cc1` (stereo not shown) [CBK073918], the viability at 28.5 h, 10 µM came out at 89.2%.
Under `O=C1N=C(NC2CC3CCC2C3)SC12CCC2` (stereo not shown) [CBK073933] stands 96.2%.
As for `Cc1oc(-c2ccccc2)nc1C(=O)N1CCCN(C)CC1` [CBK073940C], the viability at 28.5 h, 10 µM was found to be 105%.
Consider `O=S(=O)(Nc1cc(O[C@@H]2CCNC2)c2occc2c1)c1cc(F)c(Br)cc1F` [CBK073943C], for which the viability at 28.5 h, 10 µM amounted to 92%.
As for `CC(C)(C)c1ccc(C(=O)N2CCCCC2CO)cc1` (stereo not shown) [CBK073951], the viability at 28.5 h, 10 µM is 86.4%.
Regarding `COc1ccc2[nH]c3c(c2c1)CCNC31CCN(Cc2ccccc2)C1` (stereo not shown) [CBK073952C], the viability at 28.5 h, 10 µM is 86.5%.
For the compound `O=C1CCC(=O)N1CCOc1nccnc1N1CCNCC1` [CBK074030T], the viability at 28.5 h, 10 µM is 97.6%.
`Cc1cccc(C(=O)N2CCCCC2C)c1` (stereo not shown) [CBK074052]: the viability at 28.5 h, 10 µM came out at 118%.
On to `CC(C)C1OC(NCCN2CCOCC2)=NC1=O` (stereo not shown) [CBK074097T], for which the viability at 28.5 h, 10 µM worked out at 91%.
As for `CC1CCN(CC[C@H]2CCCN2S(=O)(=O)c2cccc(O)c2)CC1` [CBK074118C], the viability at 28.5 h, 10 µM turned out to be 112%.
Regarding `Cc1cccnc1C(c1ccccc1)N(C)C(=O)C1CCN(C(=O)NCc2ccccc2)CC1` (stereo not shown) [CBK074119], the viability at 28.5 h, 10 µM was determined as 106%.
The figure for `Cc1cccc(C(=O)N2CCCCC2CN(C)C)c1` (stereo not shown) [CBK074171] is 81.7%.
For the compound `CCOC(=O)c1sc(-c2ccccc2)nc1C` [CBK074204], the viability at 28.5 h, 10 µM stood at 87.5%.
With `CCC1CCCCN1C(=O)c1cccs1` (stereo not shown) [CBK074214], the viability at 28.5 h, 10 µM is 104%.
For `CCC1CCCCN1C(=O)c1ccc(-c2ccccc2)s1` (stereo not shown) [CBK074215], the viability at 28.5 h, 10 µM turned out to be 96.5%.
Under `CCOC(=O)C1CCN(C(=O)c2ccc(OC)cc2)CC1` [CBK074220] stands 99.2%.
`O=C(c1ccc(OC(F)F)cc1)N1CCCCC1` [CBK074223]: the viability at 28.5 h, 10 µM was found to be 86.7%.
The figure for `Oc1cc(-c2ccccc2Cl)[nH]n1` [CBK074226] is 95.6%; for `CCCn1c(-c2ccccc2OC(F)(F)F)n[nH]c1=O` [CBK074238] it is 110%.
